Structures can show the parent of a compound that is named as a salt.
Experiments:
Conditions in all cases: exposure time: 72 h
E13 [1] = patient-derived glioblastoma stem cells of classical subtype; test: surviving fraction (nuclei count normalised to DMSO); higher = more cells surviving (less toxic)
E21 [2] = patient-derived glioblastoma stem cells of mesenchymal subtype; test: as above
E28 [3] = patient-derived glioblastoma stem cells of classical subtype; test: as above
E31 [4] = patient-derived glioblastoma stem cells of proneural subtype; test: as above
E34 [5] = patient-derived glioblastoma stem cells of proneural subtype; test: as above
E57 [6] = patient-derived glioblastoma stem cells of mesenchymal subtype; test: as above
FT3469 [7] = normal neural stem cell line; test: as above
E13 [8] = test: phenotypic distance (Euclidean, principal components) from DMSO controls (arbitrary units); higher = stronger morphological change
E21 [9] = test: as above
E28 [10] = test: as above
E31 [11] = test: as above
E34 [12] = test: as above
E57 [13] = test: as above
FT3469 [14] = test: as above
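For phenotypic distance (Euclidean, principal components) from DMSO controls in this document: cell Painting imaging in 384-well plates, CellProfiler features reduced to at least 20 principal components, Euclidean distance versus same-plate DMSO vehicle wells (0.1% v/v), median over six images per well.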
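For surviving fraction (nuclei count normalised to DMSO) in this document: nuclei counted by high-content imaging of Hoechst-stained cells in laminin-coated 384-well plates, relative to 0.1% DMSO vehicle wells, with staurosporine as cell-death control.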

COc1cccc2c1C(=O)c1c(O)c3c(c(O)c1C2=O)C[C@@](O)(C(=O)CO)C[C@@H]3O[C@H]1C[C@H](N)[C@H](O)[C@H](C)O1 [Doxorubicin hydrochloride]
Conditions	phenotypic distance	surviving fraction
E13 [1], 4.1 nM	–	0.639
E13 [1], 12.3 nM	–	0.527
E13 [1], 37 nM	–	0.409
E13 [1], 111.1 nM	–	0.265
E13 [1], 333.3 nM	–	0.188
E13 [1], 1000 nM	–	0.0799
E13 [1], 3000 nM	–	0.0133
E13 [8], 4.1 nM	2.25	–
E13 [8], 12.3 nM	3.82	–
E13 [8], 37 nM	5.4	–
E13 [8], 111.1 nM	6.04	–
E13 [8], 333.3 nM	6.31	–
E13 [8], 1000 nM	6.48	–
E13 [8], 3000 nM	6.01	–
E21 [2], 4.1 nM	–	0.799
E21 [2], 12.3 nM	–	0.544
E21 [2], 37 nM	–	0.428
E21 [2], 111.1 nM	–	0.237
E21 [2], 333.3 nM	–	0.17
E21 [2], 1000 nM	–	0.0999
E21 [2], 3000 nM	–	0.0192
E21 [9], 4.1 nM	1.5	–
E21 [9], 12.3 nM	4.4	–
E21 [9], 37 nM	6.35	–
E21 [9], 111.1 nM	5.11	–
E21 [9], 333.3 nM	5.4	–
E21 [9], 1000 nM	5.92	–
E21 [9], 3000 nM	6.77	–
E28 [3], 4.1 nM	–	0.535
E28 [3], 12.3 nM	–	0.403
E28 [3], 37 nM	–	0.341
E28 [3], 111.1 nM	–	0.163
E28 [3], 333.3 nM	–	0.174
E28 [3], 1000 nM	–	0.35
E28 [3], 3000 nM	–	0.0586
E28 [10], 4.1 nM	2.14	–
E28 [10], 12.3 nM	2.39	–
E28 [10], 37 nM	2.6	–
E28 [10], 111.1 nM	3.51	–
E28 [10], 333.3 nM	3.16	–
E28 [10], 1000 nM	3.08	–
E28 [10], 3000 nM	5.26	–
E31 [4], 4.1 nM	–	0.425
E31 [4], 12.3 nM	–	0.381
E31 [4], 37 nM	–	0.269
E31 [4], 111.1 nM	–	0.186
E31 [4], 333.3 nM	–	0.105
E31 [4], 1000 nM	–	0.0519
E31 [4], 3000 nM	–	0.0645
E31 [11], 4.1 nM	2.91	–
E31 [11], 12.3 nM	2.49	–
E31 [11], 37 nM	2.07	–
E31 [11], 111.1 nM	2.28	–
E31 [11], 333.3 nM	4.77	–
E31 [11], 1000 nM	5.51	–
E31 [11], 3000 nM	5.71	–
E34 [5], 4.1 nM	–	0.738
E34 [5], 12.3 nM	–	0.599
E34 [5], 37 nM	–	0.502
E34 [5], 111.1 nM	–	0.539
E34 [5], 333.3 nM	–	0.502
E34 [5], 1000 nM	–	0.346
E34 [5], 3000 nM	–	0.123
E34 [12], 4.1 nM	0.849	–
E34 [12], 12.3 nM	3.53	–
E34 [12], 37 nM	4.3	–
E34 [12], 111.1 nM	3.08	–
E34 [12], 333.3 nM	2.7	–
E34 [12], 1000 nM	5.02	–
E34 [12], 3000 nM	4.21	–
E57 [6], 4.1 nM	–	0.74
E57 [6], 12.3 nM	–	0.411
E57 [6], 37 nM	–	0.229
E57 [6], 111.1 nM	–	0.172
E57 [6], 333.3 nM	–	0.164
E57 [6], 1000 nM	–	0.113
E57 [6], 3000 nM	–	0.0765
E57 [13], 4.1 nM	1.85	–
E57 [13], 12.3 nM	4.6	–
E57 [13], 37 nM	8.27	–
E57 [13], 111.1 nM	7.23	–
E57 [13], 333.3 nM	7.01	–
E57 [13], 1000 nM	7.35	–
E57 [13], 3000 nM	7.3	–
FT3469 [7], 4.1 nM	–	0.574
FT3469 [7], 12.3 nM	–	0.678
FT3469 [7], 37 nM	–	0.598
FT3469 [7], 111.1 nM	–	0.582
FT3469 [7], 333.3 nM	–	0.234
FT3469 [7], 1000 nM	–	0.149
FT3469 [7], 3000 nM	–	0.0213
FT3469 [14], 4.1 nM	1.83	–
FT3469 [14], 12.3 nM	1.46	–
FT3469 [14], 37 nM	1.66	–
FT3469 [14], 111.1 nM	1.6	–
FT3469 [14], 333.3 nM	4.2	–
FT3469 [14], 1000 nM	3	–
FT3469 [14], 3000 nM	8.29	–
